In article PMC12559310, “Tumor-targeted top1 inhibitor delivery with optimized parp inhibition in advanced solid tumors: a phase i trial of gapped scheduling” (Nature Communications, 2025):
Like-named read-outs stand apart in the source and are kept apart here.

Assays:
[1] = system: patients with advanced solid tumors; test: Phase I dose escalation (3 + 3 design): DLTs and MTD/RP2D of CRLX101 plus olaparib; format: in vivo, human; conditions: Olaparib 250 tab bid d3-13, 17-26 combined with CRLX101 12 mg/m2; % of single-agent MTD; Current study
Text: Olaparib tablets were given at escalating doses across cohorts (as shown in Fig. 1), administered twice daily on days 3–13 and 17–26 of the treatment cycle.
A standard 3 + 3 design was used for dose escalation. […] DLTs were based on toxicities observed during the first cycle. […] Study treatment was discontinued if there was a > 3-week delay in reinstitution of treatment due to drug-related toxicity during a cycle. Dose reductions were allowed for toxicities. A maximum of two dose reductions were allowed. Dose re-escalation was not allowed.

[2] = Olaparib peak plasma concentration (2 h post-oral administration); format: in vivo, human
Method: Approximately 4 mL of blood was collected into a sodium heparin tube (BD Biosciences), immediately processed into plasma before storage in cryovials at − 80 °C. […] Total CPT, polymer-unconjugated CPT, and olaparib plasma concentrations were measured using previously published assays[53],[54]. Polymer-conjugated CPT plasma concentrations were obtained via subtracting the polymer-unconjugated concentration from the total CPT concentration.
First dose pharmacokinetic parameters were calculated using noncompartmental methods (Phoenix WinNonlin 8.0, Certara Pharsight Corp, Cary, NC). Any plasma concentration measured below the LLOQ was excluded from analyses. The maximum plasma concentration (CMAX) and time to CMAX (TMAX) were recorded as observed values. The area under the plasma concentration vs time curve to the last observed time point (AUCLAST) was calculated using the Linear Up Log Down trapezoidal rule. The elimination rate (kEL) was calculated as the slope of the log-transformed concentrations vs terminal time points. AUC extrapolated to time infinity (AUCINF) was calculated as AUCLAST + CLAST/kEL, where CLAST is the concentration at the last observed time point. Half-life (t1/2) was calculated as ln2/kEL. Apparent oral clearance (CL/F) was calculated as dose/AUCINF; volume of distribution at steady-state (Vss) was calculated via the product of mean residence time extrapolated to infinity (MRTINF) and […]. Pharmacokinetic parameters were calculated for each individual and summarized using the arithmetic mean ± standard deviation (SD).

SCLC cell lines = system: SCLC cell lines; parameters: method as in protocol [5]; conditions: pre-clinical models of SCLC; ref protocol [5]; cited from earlier work
CYP3A4 [3] = conditions: in vitro; cited from earlier work
CYP3A4 [4] = conditions: in vitro; cited from earlier work; remark: listed apart in the source
CYP1A2 = conditions: in vitro; cited from earlier work
CYP2B6 = conditions: in vitro; cited from earlier work
CYP3A4 [5] = conditions: in vitro; cited from earlier work; remark: listed apart in the source
P-gp = conditions: in vitro; cited from earlier work
OATP1B1 = conditions: in vitro; cited from earlier work
OCT1 = conditions: in vitro; cited from earlier work
OCT2 = conditions: in vitro; cited from earlier work
OAT3 = conditions: in vitro; cited from earlier work
MATE1 = conditions: in vitro; cited from earlier work
MATE2K = conditions: in vitro; cited from earlier work
BRCP = conditions: in vitro; cited from earlier work
anaesthetized dog = system: anaesthetized dog; parameters: method as in olaparib Investigator’s Brochure; conditions: at the doses studied, ref olaparib Investigator’s Brochure; cited from earlier work
rat = system: rat; parameters: method as in olaparib Investigator’s Brochure; conditions: rat Irwin test, at the doses studied; ref olaparib Investigator’s Brochure; cited from earlier work
target organ of toxicity = system: target organ of toxicity; parameters: method as in olaparib Investigator’s Brochure; conditions: toxicology studies; ref olaparib Investigator’s Brochure; cited from earlier work
patients = conditions: tablet BID; protocol rationale; cited from earlier work
[6] = system: patients with solid tumors; conditions: Inv New Drugs, cited from earlier work
DNA damage = system: DNA damage; parameters: method as in earlier work; conditions: preclinical studies, transient, declining thereafter; cited from earlier work

In the case of `O=C(c1cc(Cc2n[nH]c(=O)c3ccccc23)ccc1F)N1CCN(C(=O)C2CC2)CC1` [olaparib], the “PARPi % of MTD” value [1] is reported as 83%, the “dose dependence of peak concentrations” value ([2]; 100-300 mg, 2 hours post-dose) is reported as “increased proportionally with the dose” and the CMAX ([2]; Olaparib dose 100 mg, N 2, 2 h post-dose, mean ± SD) is reported as 2843.1 ± 947.62 ng/mL. It also gave a CMAX ([2]; Olaparib dose 150 mg, N 5, 2 h post-dose, mean ± SD) of 2359.8 ± 1548.0 ng/mL, a CMAX ([2]; Olaparib dose 200 mg, N 3, 2 h post-dose, mean ± SD) of 4496.7 ± 2375.2 ng/mL and a CMAX ([2]; Olaparib dose 300 mg, N 6, 2 h post-dose, mean ± SD) of 5594.6 ± 4132.4 ng/mL. The Cmax at 2 h ([2]; human, plasma, oral, Olaparib dose 250 mg, N 7, 2 h post-dose, mean ± SD) was 6340 ± 4870 ng/mL, the single agent activity (SCLC cell lines) was “striking single agent activity in a majority of SCLC cell lines tested” and the CYP3A4 inhibition (CYP3A4 [3]) was “inhibits CYP3A4 in vitro”. The “principal enzyme forming the 3 main metabolites” value (CYP3A4 [4]) was “CYP3A4”, the CYP1A2 induction (CYP1A2) was “Induction” and the CYP2B6 induction (CYP2B6) was “Induction”. The CYP3A4 induction (CYP3A4 [5]) was “Induction”, the P-gp inhibition (P-gp) was “inhibitor” and the OATP1B1 inhibition (OATP1B1) was “inhibitor”. The OCT1 inhibition (OCT1) was “inhibitor”, the OCT2 inhibition (OCT2) was “inhibitor” and the OAT3 inhibition (OAT3) was “inhibitor”. For the same molecule, the MATE1 inhibition (MATE1) was “inhibitor”, the MATE2K inhibition (MATE2K) was “inhibitor” and the BRCP inhibition (BRCP) was “weak inhibitor”. For the same molecule, the “effects on cardiovascular or respiratory parameters” value (anaesthetized dog) was “no noticeable”, the “behavioural, autonomic or motor effects” value (rat) was “no noticeable” and the “target organ of toxicity” value (target organ of toxicity) was “bone marrow”. For the same molecule, the “single-agent maximum tolerated dose (MTD)” value (patients) was 300 mg, the “PARPi % of MTD” value ([6]; Olaparib 50 mg bid d1-5 with Irinotecan 125 mg/m2 q2w, ref Chen, 2016) was 12% and the “PARPi % of MTD” value ([6]; Olaparib 50 mg qd d1-21 with Irinotecan 200 mg/m2 q3w, ref Chen, 2016) was 6%. The “PARPi % of MTD” value ([6]; Olaparib 100 mg bid d1-21 with Topotecan 1 mg/m2/d1-3, ref Samol, 2012) was 25%.

In the case of `CC[C@@]1(O)C(=O)OCc2c1cc1n(c2=O)Cc2cc3ccccc3nc2-1` [camptothecin, 20(S)-camptothecin], the “time of peak of camptothecin-induced DNA damage” value (DNA damage) is given as 24 to 48 h.
